Reference: ChEMBL document CHEMBL2086335, “Three new 12-carbamoylated streptothricins from Streptomyces sp. I08A 1776” (2012)
Converted amounts (≈) assume the structure as drawn.

Assays:
Assay type in all cases: functional
[1] = test system: Staphylococcus aureus; assay: Antibacterial activity against Staphylococcus aureus ATCC 25923 by microbroth dilution method
[2] = test system: Enterococcus faecalis; assay: Antibacterial activity against Enterococcus faecalis ATCC 29212 by microbroth dilution method
[3] = test system: Bacillus subtilis; assay: Antibacterial activity against Bacillus subtilis ATCC 6633 by microbroth dilution method
[4] = test system: Mycobacterium tuberculosis; assay: Antibacterial activity against Mycobacterium tuberculosis H37Rv by microbroth dilution method
[5] = test system: Mycolicibacterium smegmatis; assay: Antibacterial activity against Mycobacterium smegmatis MC2 155 by microbroth dilution method; conditions: str. MC2 155
[6] = test system: Pseudomonas aeruginosa; assay: Antibacterial activity against Pseudomonas aeruginosa ATCC 27853 by microbroth dilution method
[7] = test system: Morganella morganii; assay: Antibacterial activity against multidrug-resistant Morganella morganii 07-09 by microbroth dilution method
[8] = test system: Escherichia coli; assay: Antibacterial activity against Escherichia coli ATCC 25922 by microbroth dilution method
[9] = test system: Candida albicans; assay: Antifungal activity against Candida albicans ATCC 10231 by microbroth dilution method

NCCC[C@H](N)CC(=O)NCCC[C@H](N)CC(=O)N[C@@H]1[C@H](O)[C@@H](O)[C@@H](COC(N)=O)O[C@H]1/N=C1\N[C@@H]2[C@H](O)CNC(=O)[C@H]2N1
MIC [1]: > 256 µg/mL
MIC [2]: > 256 µg/mL
MIC [3]: 16 µg/mL (≈ 25.4 µM)
MIC [4]: 16 µg/mL (≈ 25.4 µM)
MIC [5]: 64 µg/mL (≈ 101 µM)
MIC [6]: > 256 µg/mL
MIC [7]: > 256 µg/mL
MIC [8]: > 256 µg/mL
MIC [9]: 32 µg/mL (≈ 50.7 µM)

CC(=O)N[C@@H](CCCNC(=O)C[C@@H](N)CCCN)CC(=O)N[C@@H]1[C@H](O)[C@@H](O)[C@@H](COC(N)=O)O[C@H]1/N=C1\N[C@@H]2[C@H](O)CNC(=O)[C@H]2N1
MIC [1]: > 256 µg/mL
MIC [2]: > 256 µg/mL
MIC [3]: 128 µg/mL (≈ 190 µM)
MIC [4]: > 256 µg/mL
MIC [5]: > 256 µg/mL
MIC [6]: > 256 µg/mL
MIC [7]: > 256 µg/mL
MIC [8]: > 256 µg/mL
MIC [9]: > 256 µg/mL

CC(=O)N[C@@H](CCCNC(=O)C[C@@H](N)CCCNC(=O)C[C@@H](N)CCCN)CC(=O)N[C@@H]1[C@H](O)[C@@H](O)[C@@H](COC(N)=O)O[C@H]1/N=C1\N[C@@H]2[C@H](O)CNC(=O)[C@H]2N1
MIC [1]: > 256 µg/mL
MIC [2]: > 256 µg/mL
MIC [3]: 64 µg/mL (≈ 79.9 µM)
MIC [4]: > 256 µg/mL
MIC [5]: > 256 µg/mL
MIC [6]: > 256 µg/mL
MIC [7]: > 256 µg/mL
MIC [8]: 64 µg/mL (≈ 79.9 µM)
MIC [9]: > 256 µg/mL

CC(=O)N[C@@H](CCCNC(=O)C[C@@H](N)CCCNC(=O)C[C@@H](N)CCCN)CC(=O)N[C@@H]1[C@H](O)[C@@H](O)[C@@H](COC(N)=O)O[C@H]1/N=C1\N[C@H]([C@H](O)CN)[C@@H](C(=O)O)N1
MIC [1]: > 256 µg/mL
MIC [2]: > 256 µg/mL
MIC [3]: > 256 µg/mL
MIC [4]: > 256 µg/mL
MIC [5]: > 256 µg/mL
MIC [6]: > 256 µg/mL
MIC [7]: > 256 µg/mL
MIC [8]: > 256 µg/mL
MIC [9]: > 256 µg/mL

CC(=O)N[C@@H](CCCNC(=O)C[C@@H](N)CCCNC(=O)C[C@@H](N)CCCN)CC(=O)N[C@@H]1[C@H](O)[C@@H](OC(N)=O)[C@@H](CO)O[C@H]1/N=C1\N[C@H]([C@H](O)CN)[C@@H](C(=O)O)N1
MIC [1]: > 256 µg/mL
MIC [2]: > 256 µg/mL
MIC [3]: 64 µg/mL (≈ 78.2 µM)
MIC [4]: > 256 µg/mL
MIC [5]: > 256 µg/mL
MIC [6]: > 256 µg/mL
MIC [7]: > 256 µg/mL
MIC [8]: 64 µg/mL (≈ 78.2 µM)
MIC [9]: > 256 µg/mL

NNC(=O)c1ccncc1 [ISONIAZID]
MIC [4]: 0.0625 µg/mL (≈ 0.456 µM)

C[C@H]1COc2c(N3CCN(C)CC3)c(F)cc3c(=O)c(C(=O)O)cn1c23.C[C@H]1COc2c(N3CCN(C)CC3)c(F)cc3c(=O)c(C(=O)O)cn1c23.O [LEVOFLOXACIN]
MIC [1]: 0.12 µg/mL
MIC [2]: 0.5 µg/mL
MIC [3]: 0.12 µg/mL
MIC [4]: 0.5 µg/mL
MIC [5]: 1 µg/mL
MIC [6]: 0.25 µg/mL
MIC [7]: 16 µg/mL
MIC [9]: > 256 µg/mL

CO[C@H]1/C=C/O[C@@]2(C)Oc3c(C)c(O)c4c(O)c(c(/C=N/N5CCN(C)CC5)c(O)c4c3C2=O)NC(=O)/C(C)=C\C=C\[C@H](C)[C@H](O)[C@@H](C)[C@@H](O)[C@@H](C)[C@H](OC(C)=O)[C@@H]1C [RIFAMPIN]
MIC [4]: 0.0625 µg/mL (≈ 0.0759 µM)

NCCC[C@H](N)CC(=O)NCCC[C@H](N)CC(=O)N[C@@H]1[C@H](O)[C@@H](OC(N)=O)[C@@H](CO)O[C@H]1NC1=N[C@@H]2C(=O)NC[C@@H](O)[C@H]2N1 [STREPTOTHRICIN E]
MIC [1]: 4 µg/mL (≈ 6.34 µM)
MIC [2]: 64 µg/mL (≈ 101 µM)
MIC [3]: 1 µg/mL (≈ 1.59 µM)
MIC [4]: 1 µg/mL (≈ 1.59 µM)
MIC [5]: 4 µg/mL (≈ 6.34 µM)
MIC [6]: 64 µg/mL (≈ 101 µM)
MIC [7]: 4 µg/mL (≈ 6.34 µM)
MIC [8]: 16 µg/mL (≈ 25.4 µM)
MIC [9]: 1 µg/mL (≈ 1.59 µM)
